Assay results published in PMC9981719, “A novel designed membrane-active peptide for the control of foodborne Salmonella enterica serovar Typhimurium” (Scientific Reports, 2023).
Where no end group is shown, it is not given here.

Assays:
[1] = tested on: human red blood cells (hRBCs); assay: Hemolysis assay; type: cell-based
Description: The toxicity of all peptide derivatives toward human red blood cells (hRBCs) was investigated by evaluating the amount of hemoglobin released after exposure to peptide. Briefly, hRBCs (blood group O) were collected from a healthy adult volunteer into a heparin-coated polycarbonate tube. The sample was centrifuged for 5 min at 1000g to separate erythrocytes from buffy coat and plasma. The erythrocytes were washed at least three times with 1 × PBS and centrifuged for 5 min at 1000g or until supernatant was clear. The sample was resuspended in PBS to obtain 2% (v/v) hRBCs. To determine hRBC lysis, hRBC suspensions were incubated with equal volumes of various concentrations of peptide (0.98–250 µg/ml) for 1 h at 37 °C. Intact hRBCs were centrifuged for 5 min at 1000g, supernatants were transferred into new 96-well plates, and absorbance was measured at OD 405 nm. Untreated hRBCs (in PBS only) served as negative control (ODNegative) and hRBCs treated with 0.1% Triton X-100 as positive control (ODTritonX-100). Absorbance of samples was converted to percentage hemolysis according to the equation: Hemolysis%=ODSample-ODNegative/ODTriton X-100-ODNegative×100

S. Typhimurium ATCC13311 = type: cell-based, Salmonella enterica serovar Typhimurium; conditions: at MIC and 2 × MIC
Description: Bacterial killing kinetics of A11 were investigated against S. Typhimurium as described previously. S. Typhimurium ATCC13311 was grown in TSB at 37 °C until reaching the exponential phase. […] The mixture was sampled at 1, 2, 4, 6, 8, 12 and 24 h, and subsequently tenfold serially diluted in 1 × PBS and plated in triplicate on Mueller–Hinton agar (MHA). After incubation at 37 °C for 24 h, the colonies were counted and CFU/ml was calculated. The tests were done in three independent experiments.

[2] = tested on: S. Typhimurium ATCC 13311; type: cell-based, Salmonella enterica serovar Typhimurium; conditions: ATCC 13311, 24 h
Description: Two-fold serial dilutions (0.98–250 μg/ml) of A11 with various concentrations of MgCl2 and NaCl (1 mM MgCl2, 5 mM MgCl2, 1% NaCl, 3% NaCl, 5% NaCl and 10% NaCl) were prepared and incubated at 37 °C for 60 min. Then, 50 μl of A11 in different salt concentrations were incubated with 50 μl of S. Typhimurium ATCC 13311 suspension (approximately 1 × 10^7 CFU/ml) at 37 °C with shaking. After 24 h, MICs were determined; all experiments were done in triplicate.

[3] = tested on: S. Typhimurium ATCC 13311; assay: Effect of pH on MIC; type: cell-based, Salmonella enterica serovar Typhimurium
Description: The pH of peptide solutions was adjusted (pH 3, 5, 7, 9 and 11) using 1 M acetic acid (CH3COOH) and 1 M sodium hydroxide (NaOH). Solutions adjusted to the different pHs without addition of A11 were used as controls. Subsequently, twofold serially diluted solutions (0.98–250 μg/ml) of A11 peptide were prepared with different pHs of peptide solution and incubated at 37 °C for 60 min, transferred to 1 × 10^7 CFU/ml of S. Typhimurium ATCC 13311 suspensions, then incubated at 37 °C with continuous shaking. After 24 h, MIC values were determined.

[4] = tested on: Bacillus cereus ATCC 11778; type: cell-based
Description: (§1) All tests were done in triplicate.

[5] = tested on: Staphylococcus epidermidis ATCC 12228; type: cell-based
Description: as §1

[6] = tested on: Pseudomonas aeruginosa ATCC 27853; type: cell-based
Description: as §1

[7] = tested on: Listeria monocytogenes 10403s; type: cell-based; conditions: 10403s
Description: as §1

[8] = tested on: Acinetobactero baumanii MT strain; type: cell-based
Description: as §1

[9] = tested on: Staphylococcus aureus ATCC 25923; type: cell-based
Description: as §1

[10] = tested on: S. Typhimurium ATCC 13311; assay: Effect of temperature on MIC; type: cell-based, Salmonella enterica serovar Typhimurium
Description: Two-fold serial dilutions (0.98–250 μg/ml) of A11 peptide were prepared and pre-incubated for 60 min at one of various temperatures (40 °C, 60 °C, 80 °C and 100 °C), and then cooled to 4 °C. After 30 min, 50 μl of heated peptide solutions were cultured with 50 μl of S. Typhimurium ATCC 13311 suspensions (approximately 1 × 10^7 CFU/ml). After 24 h incubation at 37 °C, MICs were determined; all experiments were done in triplicate.

S. Typhimurium H1-015 = type: cell-based, Salmonella enterica serovar Typhimurium; conditions: strain H1-015
Description: as §1

S. Typhimurium H1-001 = type: cell-based, Salmonella enterica serovar Typhimurium; conditions: strain H1-001
Description: as §1

[11] = tested on: Salmonella Typhimurium ATCC 13311; type: cell-based, Salmonella enterica serovar Typhimurium; conditions: ATCC 13311, 18 h
Description: as §1

S. Typhimurium H1-011 = type: cell-based, Salmonella enterica serovar Typhimurium; conditions: strain H1-011
Description: as §1

WVKKVARKVVKIGRKVAR-NH2 [A11] was tested, and the “hemolytic activity at the MIC concentration” value [1] was “less than 2%”, the “killing of S. Typhimurium within 6 h” value (S. Typhimurium ATCC13311) was “more than 99%” and the “MIC in 1 mM MgCl2” value [2] was 15.63 µg/mL. For the same substance, the “MIC in 5 mM MgCl2” value [2] was 31.25 µg/mL, the “MIC in 1% NaCl” value [2] was 15.63 µg/mL and the “MIC in 3% NaCl” value [2] was 125 µg/mL. The “MIC in 5% NaCl” value [2] was 250 µg/mL, the “MIC in 10% NaCl” value [2] was over 250 µg/mL and the “MIC at pH 3” value ([3]; peptide solution adjusted to pH 3, incubated 37 °C 60 min, then 24 h with 1 × 10^7 CFU/ml) was 125 µg/ml. For the same substance, the “MIC at pH 5” value ([3]; peptide solution adjusted to pH 5, incubated 37 °C 60 min, then 24 h with bacteria) was 31.25 µg/ml, the “MIC at pH 7” value ([3]; peptide solution adjusted to pH 7, incubated 37 °C 60 min, then 24 h with bacteria) was 15.63 µg/ml and the “MIC at pH 9” value ([3]; peptide solution adjusted to pH 9, incubated 37 °C 60 min, then 24 h with bacteria) was 15.63 µg/ml. The “MIC at pH 11” value ([3]; peptide solution adjusted to pH 11, incubated 37 °C 60 min, then 24 h with bacteria) was 31.25 µg/ml, the MBC ([4]; ATCC 11778, 18 h) was 250 (250) µg/ml and the MIC ([4]; ATCC 11778, 24 h) was 250 (250) µg/ml. For the same substance, the MBC ([5]; ATCC 12228, 18 h) was 31.25 µg/mL, the MIC ([5]; ATCC 12228, 24 h) was 15.63 µg/mL and the MBC ([6]; ATCC 27853, 18 h) was 62.5 µg/mL. For the same substance, the MIC ([6]; ATCC 27853, 24 h) was 31.25 µg/mL, the MBC ([7]; 18 h) was 125 (125) µg/ml and the MIC ([7]; 24 h) was 125 (125) µg/ml. For the same substance, the MBC ([8]; 18 h) was 31.25 µg/mL, the MIC ([8]; 24 h) was 15.63 µg/mL and the MBC ([9]; ATCC 25923, 18 h) was > 250 (> 250) µg/ml. For the same substance, the MIC ([9]; ATCC 25923, 24 h) was > 250 (> 250) µg/ml, the “MIC after 40 °C” value ([10]; peptide pre-incubated 60 min at 40 °C, cooled to 4 °C, then 24 h at 37 °C with bacteria, triplicate) was 15.63 µg/mL and the “MIC after 60 °C” value ([10]; peptide pre-incubated 60 min at 60 °C, cooled to 4 °C, then 24 h at 37 °C with bacteria, triplicate) was 15.63 µg/mL. The “MIC after 80 °C” value ([10]; peptide pre-incubated 60 min at 80 °C, cooled to 4 °C, then 24 h at 37 °C with bacteria, triplicate) was 15.63 µg/mL, the “MIC after 100 °C” value ([10]; peptide pre-incubated 60 min at 100 °C, cooled to 4 °C, then 24 h at 37 °C with bacteria, triplicate) was 15.63 µg/mL and the “MIC after heat treatment, same value at each temperature” value ([10]; various temperatures from 40 to 100 °C for 1 h) was 15.63 µg/mL. The MBC (S. Typhimurium H1-015) was 62.5 (62.5) µg/ml, the MIC (S. Typhimurium H1-015) was 62.5 (62.5) µg/ml and the MBC (S. Typhimurium H1-001) was 125 µg/mL. For the same substance, the MIC (S. Typhimurium H1-001) was 62.5 µg/mL, the “MIC, Control” value [11] was 15.63 µg/mL and the MBC (S. Typhimurium H1-011) was 62.5 (62.5) µg/ml. For the same substance, the MIC (S. Typhimurium H1-011) was 62.5 (62.5) µg/ml.
